Measured values published in patent US10799496B2, “Naphthylenyl compounds for long-acting injectable compositions and related methods” (priority 2018, dated 2020).

Experiments:
[1] = Whole blood stability assay; assay type: in vitro ADME; details: prodrug 50 nM, fresh pooled human whole blood, 37 degrees C.; read-out: t1/2 at 37 degrees C. in human whole blood
Protocol: Naltrexone prodrug stability was assessed using freshly collected whole blood (within 24-hr collection) from pooled human (n=3) donors. The incubation mixtures were prepared by spiking the prodrugs into pre-warmed (37 degrees C.) fresh whole blood to a final concentration of 50 nM. After gentle mixing, aliquots of incubation mixtures were immediately transferred into four different 96-deep well plates. One plate was used for each time point. The plates were incubated at 37 degrees C. at a shaking speed of 100 rpm. At time points 15, 30, 60 and 120 minutes, the reaction was quenched by addition of a mixture of water and acetonitrile containing the internal standard (naltrexone-D3). Time point 0 minutes was prepared separately by spiking the prodrugs into a quenched whole blood to obtain a final concentration of 50 nM. All samples were vortexed at a low speed for 15 min and centrifuged at 3900 rpm for 15 min. Supernatants were transferred into 96-well plates for LC-MS/MS analysis to monitor the depletion of the prodrugs and the formation of naltrexone.
The amount of remaining prodrug and released naltrexone for each sample was quantitated against the calibration curves prepared with the whole blood. The human whole blood was purchased from BioreclamationIVT (Westbury, N.Y., USA). Naltrexone-D3 was purchased from CERILLIANT® (Round Rock, Tex., USA). […] Where multiple runs have been completed, average values are reported.

[2] = Pharmacokinetic evaluation of the release of naltrexone from Compound 2 in rats following a single intramuscular injection; assay type: in vivo, Sprague-Dawley rats; details: for Compound 2i conc.: rat plasma
Protocol: Five male Sprague-Dawley rats were allowed to acclimate to the test facility for at least 2 days prior to study start. For dose administration of Compound 2, the rats were lightly anesthetized with isofluorane, the hind leg shaved and dosed intramuscularly with the formulation using a 21G needle. […] Serial whole blood samples were collected via sublingual route (˜150 μL) at 1, 8, and 24 hours post dose, and at 2, 4, 7, 10, 14, 17, 21, 24, 28, 35, 42, 49, 56, 63, 71, 78, 85, and 91 days post dose.
Blood samples were placed into K2EDTA blood collection tubes. After collection, blood samples were maintained chilled (on wet ice) and centrifuged (11,500 rpm for 2 minutes at 5 degrees C.) within 30 minutes to obtain plasma. Plasma was transferred into a single vial, 1.5 mL screw cap micro-centrifuge tube with inserts and stored at −80 degrees C. until analysis.
The formulation dosed was a crystalline suspension of Compound 2 (46 milligrams of Compound 2 dosed per animal), wherein the crystalline test article was characterized with a particle size distribution of Dv10=12.9 μm, Dv50=31.5 μm, and Dv90=63.1 μm (as measured via laser diffraction). The formulation was prepared the day before dosing. Details of the formulation dosed are described in Table D below.
Results of the above intramuscular rat study of Compound 2 are shown in Tables E and F. In particular, Table E reports the average blood plasma levels of naltrexone in rat (n=5) over 91 days following intramuscular administration.

O=C(Cc1cccc2c(CC(=O)Oc3ccc4c5c3O[C@H]3C(=O)CC[C@@]6(O)[C@@H](C4)N(CC4CC4)CC[C@]536)cccc12)Oc1ccc2c3c1O[C@H]1C(=O)CC[C@@]4(O)[C@@H](C2)N(CC2CC2)CC[C@]314 [Compound 1, bis((4R,4aS,7aR,12bS)-3-(cyclopropylmethyl)-4a-hydroxy-7-oxo-2,3,4,4a,5,6,7,7a-octahydro-1H-4,12-methanobenzofuro[3,2-e]isoquinolin-9-yl) 2,2′-(naphthalene-1,5-diyl)diacetate]
half-life at 50 nM [1]: 26.4 min

O=C(O)Cc1ccc2cc(CC(=O)Oc3ccc4c5c3O[C@H]3C(=O)CC[C@@]6(O)[C@@H](C4)N(CC4CC4)CC[C@]536)ccc2c1 [Compound 2i, 2-(6-(2-(((4R,4aS,7aR,12bS)-3-(cyclopropylmethyl)-4a-hydroxy-7-oxo-2,3,4,4a,5,6,7,7a-octahydro-1H-4,12-methanobenzofuro[3,2-e]isoquinolin-9-yl)oxy)-2-oxoethyl)naphthalen-2-yl)acetic acid]
Compound 2i conc. ([2]; single i.m. dose of Compound 2, day 0.042 (1 hr), Rat 1): <0.2 ng/mL
Compound 2i conc. ([2]; single i.m. dose of Compound 2, day 0.042 (1 hr), Rat 2): <0.2 ng/mL
Compound 2i conc. ([2]; single i.m. dose of Compound 2, day 0.042 (1 hr), Rat 3): <0.2 ng/mL
Compound 2i conc. ([2]; single i.m. dose of Compound 2, day 0.042 (1 hr), Rat 4): <0.2 ng/mL
Compound 2i conc. ([2]; single i.m. dose of Compound 2, day 0.042 (1 hr), Rat 5): <0.2 ng/mL
Compound 2i conc. ([2]; single i.m. dose of Compound 2, day 0.33 (8 hr), Rat 1): <0.2 ng/mL
Compound 2i conc. ([2]; single i.m. dose of Compound 2, day 0.33 (8 hr), Rat 2): <0.2 ng/mL
Compound 2i conc. ([2]; single i.m. dose of Compound 2, day 0.33 (8 hr), Rat 3): <0.2 ng/mL
Compound 2i conc. ([2]; single i.m. dose of Compound 2, day 0.33 (8 hr), Rat 4): <0.2 ng/mL
Compound 2i conc. ([2]; single i.m. dose of Compound 2, day 0.33 (8 hr), Rat 5): <0.2 ng/mL
Compound 2i conc. ([2]; single i.m. dose of Compound 2, day 1, Rat 1): <0.2 ng/mL
Compound 2i conc. ([2]; single i.m. dose of Compound 2, day 1, Rat 2): <0.2 ng/mL
Compound 2i conc. ([2]; single i.m. dose of Compound 2, day 1, Rat 3): <0.2 ng/mL
Compound 2i conc. ([2]; single i.m. dose of Compound 2, day 1, Rat 4): <0.2 ng/mL
Compound 2i conc. ([2]; single i.m. dose of Compound 2, day 1, Rat 5): <0.2 ng/mL
Compound 2i conc. ([2]; single i.m. dose of Compound 2, day 2, Rat 1): <0.2 ng/mL
Compound 2i conc. ([2]; single i.m. dose of Compound 2, day 2, Rat 2): <0.2 ng/mL
Compound 2i conc. ([2]; single i.m. dose of Compound 2, day 2, Rat 3): <0.2 ng/mL
Compound 2i conc. ([2]; single i.m. dose of Compound 2, day 2, Rat 4): <0.2 ng/mL
Compound 2i conc. ([2]; single i.m. dose of Compound 2, day 2, Rat 5): <0.2 ng/mL
Compound 2i conc. ([2]; single i.m. dose of Compound 2, day 4, Rat 1): <0.2 ng/mL
Compound 2i conc. ([2]; single i.m. dose of Compound 2, day 4, Rat 2): <0.2 ng/mL
Compound 2i conc. ([2]; single i.m. dose of Compound 2, day 4, Rat 3): <0.2 ng/mL
Compound 2i conc. ([2]; single i.m. dose of Compound 2, day 4, Rat 4): <0.2 ng/mL
Compound 2i conc. ([2]; single i.m. dose of Compound 2, day 4, Rat 5): <0.2 ng/mL
Compound 2i conc. ([2]; single i.m. dose of Compound 2, day 7, Rat 1): <0.2 ng/mL
Compound 2i conc. ([2]; single i.m. dose of Compound 2, day 7, Rat 2): <0.2 ng/mL
Compound 2i conc. ([2]; single i.m. dose of Compound 2, day 7, Rat 3): <0.2 ng/mL
Compound 2i conc. ([2]; single i.m. dose of Compound 2, day 7, Rat 4): <0.2 ng/mL
Compound 2i conc. ([2]; single i.m. dose of Compound 2, day 7, Rat 5): <0.2 ng/mL
Compound 2i conc. ([2]; single i.m. dose of Compound 2, day 10, Rat 5): <0.2 ng/mL
Compound 2i conc. ([2]; single i.m. dose of Compound 2, day 49, Rat 1): <0.1 ng/mL
Compound 2i conc. ([2]; single i.m. dose of Compound 2, day 49, Rat 2): <0.1 ng/mL
Compound 2i conc. ([2]; single i.m. dose of Compound 2, day 49, Rat 3): <0.1 ng/mL
Compound 2i conc. ([2]; single i.m. dose of Compound 2, day 49, Rat 4): <0.1 ng/mL
Compound 2i conc. ([2]; single i.m. dose of Compound 2, day 56, Rat 1): <0.1 ng/mL
Compound 2i conc. ([2]; single i.m. dose of Compound 2, day 56, Rat 2): <0.1 ng/mL
Compound 2i conc. ([2]; single i.m. dose of Compound 2, day 56, Rat 3): <0.1 ng/mL
Compound 2i conc. ([2]; single i.m. dose of Compound 2, day 56, Rat 4): <0.1 ng/mL
Compound 2i conc. ([2]; single i.m. dose of Compound 2, day 56, Rat 5): <0.1 ng/mL
Compound 2i conc. ([2]; single i.m. dose of Compound 2, day 63, Rat 1): <0.1 ng/mL
Compound 2i conc. ([2]; single i.m. dose of Compound 2, day 63, Rat 2): <0.1 ng/mL
Compound 2i conc. ([2]; single i.m. dose of Compound 2, day 63, Rat 3): <0.1 ng/mL
Compound 2i conc. ([2]; single i.m. dose of Compound 2, day 63, Rat 4): <0.1 ng/mL
Compound 2i conc. ([2]; single i.m. dose of Compound 2, day 63, Rat 5): <0.1 ng/mL
Compound 2i conc. ([2]; single i.m. dose of Compound 2, day 71, Rat 1): <0.1 ng/mL
Compound 2i conc. ([2]; single i.m. dose of Compound 2, day 71, Rat 2): <0.1 ng/mL
Compound 2i conc. ([2]; single i.m. dose of Compound 2, day 71, Rat 3): <0.1 ng/mL
Compound 2i conc. ([2]; single i.m. dose of Compound 2, day 71, Rat 4): <0.1 ng/mL
Compound 2i conc. ([2]; single i.m. dose of Compound 2, day 71, Rat 5): <0.1 ng/mL
Compound 2i conc. ([2]; single i.m. dose of Compound 2, day 78, Rat 1): <0.1 ng/mL
Compound 2i conc. ([2]; single i.m. dose of Compound 2, day 78, Rat 2): <0.1 ng/mL
Compound 2i conc. ([2]; single i.m. dose of Compound 2, day 78, Rat 3): <0.1 ng/mL
Compound 2i conc. ([2]; single i.m. dose of Compound 2, day 78, Rat 4): <0.1 ng/mL
Compound 2i conc. ([2]; single i.m. dose of Compound 2, day 78, Rat 5): <0.1 ng/mL
Compound 2i conc. ([2]; single i.m. dose of Compound 2, day 85, Rat 1): <0.1 ng/mL
Compound 2i conc. ([2]; single i.m. dose of Compound 2, day 85, Rat 2): <0.1 ng/mL
Compound 2i conc. ([2]; single i.m. dose of Compound 2, day 85, Rat 3): <0.1 ng/mL
Compound 2i conc. ([2]; single i.m. dose of Compound 2, day 85, Rat 4): <0.1 ng/mL
Compound 2i conc. ([2]; single i.m. dose of Compound 2, day 85, Rat 5): <0.1 ng/mL
Compound 2i conc. ([2]; single i.m. dose of Compound 2, day 91, Rat 1): <0.1 ng/mL
Compound 2i conc. ([2]; single i.m. dose of Compound 2, day 91, Rat 2): <0.1 ng/mL
Compound 2i conc. ([2]; single i.m. dose of Compound 2, day 91, Rat 3): <0.1 ng/mL
Compound 2i conc. ([2]; single i.m. dose of Compound 2, day 91, Rat 4): <0.1 ng/mL
Compound 2i conc. ([2]; single i.m. dose of Compound 2, day 91, Rat 5): <0.1 ng/mL
plasma concentrations of parent Compound 2 and the resultant intermediate ([2]; rat, single i.m. dose of Compound 2, over 91 days): generally low to not measurable

CC(=O)Oc1c(CC(=O)Oc2ccc3c4c2O[C@H]2C(=O)CC[C@@]5(O)[C@@H](C3)N(CC3CC3)CC[C@]425)ccc2c(OC(C)=O)c(CC(=O)Oc3ccc4c5c3O[C@H]3C(=O)CC[C@@]6(O)[C@@H](C4)N(CC4CC4)CC[C@]536)ccc12 [Compound 3, bis((4R,4aS,7aR,12bS)-3-(cyclopropylmethyl)-4a-hydroxy-7-oxo-2,3,4,4a,5,6,7,7a-octahydro-1H-4,12-methanobenzofuro[3,2-e]isoquinolin-9-yl) 2,2′-(1,5-diacetoxynaphthalene-2,6-diyl)diacetate]
half-life at 50 nM [1]: 14.8 min
